Measured values reported in patent US11596615B2, “Compositions and methods for treatment of insulin resistance” (Temple University—Of The Commonwealth System Of Higher …, priority 2016, dated 2023).
Structures can show the parent of a compound that is named as a salt.

Assays:
GLUT4 = GLUT4 carbonylation in adipose tissue of HFD mice by MRM; assay type: in vivo, C57BL/6J mice; details: about 10 mg/kg per day in water, two weeks, n=8, P<0.02, FIG. 8A
From the text: MRM-MS is a quantitative mass spectrometry-based target technology that generates unique fragment ions associated with their corresponding precursor ions. These ions can be detected and quantified in complex matrix samples. The quantitation of peptides is obtained measuring the intensity of the fragment ions. To detect carbonylated GLUT4, specific peptides were selected. The parent ion for the carbonylated GLUT4 sequence LTGWADVSGVLAELKDEK-4HNE (SEQ ID NO:2) with triple charge mass is 696.381 m/z. After fragmentation of the parent ion, relative daughter ions: 1101.94, 788.4758, 917.5138, 988.5555, 722.4186, and 481.9482 m/z were identified and used for the quantification of the carbonylated Glut 4 peptide. […] This internal standard peptide allows a relative quantification because it is used for normalization of the intensity of each GLUT4 peptide within the same sample.
MRM analyses were performed with a DIONEX UltiMate™ 3000 SRLCnano HPLC system (Thermo Scientific) coupled to a TSQ QUANTUM™ ULTRA (Thermo Scientific) triple quadrupole. PINPOINT™ software was used for method development and the optimization of the mass spectrometer parameters, as well as for peptide quantification. […]
Thirty-two C57BL/6J mice 8-weeks old were selected and randomly separated. […] Glucose levels were measured at 20, 40, 80 and 140 minutes after glucose administration in a glucose time test (GTT). […]

db/db mice = test: Glucose tolerance test in leptin receptor knock-out (db/db) mice; assay type: in vivo
Method: Leptin receptor knock-out (db/db) mice have severe, rapid, spontaneous and early-onset obesity and insulin resistance that is first recognizable at 4 weeks of age. These animals (5 for each group) were used to determine the effect of (S)-2-amino-6-((3-aminopropyl)amino)hexanoic acid dihydrochloride on impaired glucose tolerance at pre-diabetes level. The groups consisted of (i) db/db mice administered 50 mg/kg b.i.d. p.o. (S)-2-amino-6-((3-aminopropyl)amino)hexanoic acid dihydrochloride; (ii) db/db vehicle control-treated mice; and (iii) heterozygous littermate control mice. The treatment period was for 7 days. Glucose tolerance tests were performed as described above.
To determine the effect of (S)-2-amino-6-((3-aminopropyl)amino)hexanoic acid dihydrochloride on impaired glucose tolerance after diabetes is established, 6 week old db/db mice were treated with the drug (50 mg/kg b.i.d. p.o.) for 14 days. The positive control group was treated with metformin at the same dose. […] The results establish that the drug can be used to treat both pre-diabetes, and diabetes wherein the diabetic phenotype has been established.
To assess whether (S)-2-amino-6-((3-aminopropyl)amino)hexanoic acid dihydrochloride delays progression to diabetes or only masks diabetes during treatment period, (i) db/db mice (ii) db/db vehicle control-treated mice; and (iii) heterozygous littermate control mice were treated with and without (S)-2-amino-6-((3-aminopropyl)amino)hexanoic acid dihydrochloride or metformin (50 mg/kg b.i.d. p.o.) for 14 days. The 14 day treatment period was followed by another 14 day period (“wash out period”) in which no treatment was given.

[1] = Solution stability in PBS, simulated gastric fluid and simulated intestinal fluid; assay type: physicochemical; details: 37° C.
Method: The stability of the title compound was tested in the following media, in the following concentrations: (i) 1 μM in mouse (male C57BL/6) plasma, (ii) 1 μM in PBS (with Ca and Mg) (control treatment); (iii) 5 μM in stimulated gastric fluid (SGF; 0.2% NaCl; 84 mM HCl; 0.32% pepsin; pH 1.2); (iv) 5 μM in stimulated intestinal fluid (SIF; 50 mM KP, pH 6.8; 10 mg/ml pancreatin); and (v) 5 μM in PBS (+Ca and Mg) (control treatment). The results are as follows: (i) 1 μM in mouse plasma, t1/2>6 hr at 37° C.; (ii) 1 μM in PBS, t1/2>6 hr at 37° C.; (iii) 5 μM in SGF, t1/2>3 hrs at 37° C.; (iv) 5 μM in SIF, t1/2>3 hrs at 37° C.; and (v) 5 μM in PBS, t1/2>3 hr at 37° C. The “t1/2” values are the maximum time employed for the respective assays.

NCCCNCCCC[C@H](N)C(=O)O [APL, (S)-2-amino-6-((3-aminopropyl)amino)hexanoic acid dihydrochloride]
reduction of GLUT4 carbonylations in adipose tissue (GLUT4): about 50% | impaired glucose tolerance after diabetes is established (db/db mice; 6 week old db/db mice, 50 mg/kg b.i.d. p.o., 14 days, vs metformin at the same dose, FIG. 11): better in reducing impaired glucose tolerance than metformin | impaired glucose tolerance after wash out period (db/db mice; db/db mice, 50 mg/kg b.i.d. p.o. 14 days, then 14 days no treatment, FIG. 12): still effective in reducing impaired glucose tolerance even after 14 days following treatment removal | impaired glucose tolerance, pre-diabetic stage (db/db mice; pre-diabetic db/db mice, 50 mg/kg b.i.d. p.o., 7 days, FIG. 10): normalizes impaired glucose tolerance | half-life at 1 μM ([1]; 1 μM in PBS (with Ca and Mg)): > 6 h | half-life at 5 μM ([1]; 5 μM in PBS (+Ca and Mg)): > 3 h | half-life at 5 μM ([1]; simulated gastric fluid (SGF) with pepsin, 5 μM in SGF (pH 1.2, pepsin)): > 3 h | half-life at 5 μM ([1]; simulated intestinal fluid (SIF) with pancreatin, 5 μM in SIF (pH 6.8, pancreatin)): > 3 h
